Source: patent US10414734B2, “5-hydroxyalkylbenzimidazoles as mIDH1 inhibitors” (BAYER PHARMA AKTIENGESELLSCHAFT, priority 2015, dated 2019)

Experiments:
IDH1 R132H enzyme = IDH1 R132H enzyme (Homo sapiens (Human), UniProt O75874, R132H); experiment: Mutant IDH1 R132H biochemical assay; conditions: luminescent NADPH consumption readout; 1.5 nM enzyme, 1 μM NADPH, 250 μM α-KG, 30 min, 32° C.
Experimental: Mutant IDH1 R132H Biochemical Assay
mIDH1 catalyzes the NADPH-dependent reduction of alpha-ketoglutarate (α-KG) to (2R)-2-hydroxyglutarate (2-HG). NADPH consumption was measured by luminescent readout.
The biochemical reactions were performed at 32° C. in 384-well plates using a reaction volume of 41 μL and the following assay buffer conditions: 50 mM Tris pH 7.5, 100 mM NaCl, 20 mM MgCl2, 0.05% BSA, 0.01% Brij, 1 μM NADPH, and 250 μM α-KG. The IDH1 R132H enzyme was used in a final concentration of 1.5 nM. Test compounds were used in a concentration range between 0.002 and 10 μM. The final DMSO concentration was 2.4%.
The reaction was incubated for 30 minutes, then 40 μL of detection mix (0.75 μg/ml Luciferase, 0.02 U/ml Oxidoreductase, 4 μg/mL FMN, 2 μL/ml decanal/ethanol, 50 mM Tris pH 7.5, 0.5% Glycerin, 0.01% Tween-20, 0.05% BSA) was added. Luminescence was measured on a luminescent reader (10 seconds measuring time, 1 second integration period, 30% sensitivity). The decrease in luminescence is proportional to mIDH1 activity. IC50 values are determined by interpolation from plots of relative luminescence versus inhibitor concentration.

[1] = tested on: LN229 R132H cells overexpressing mutated isocitrate dehydrogenase (mIDH); experiment: Mutant IDH1 cellular assay (2-HG in medium); type: cell-based; conditions: 2-HG in medium after 24 hours, fluorescence readout
Experimental: Mutant IDH1 Cellular Assay
Levels of (2R)-2-hydroxyglutarate (2HG) were measured in medium of a cell line with overexpression of mutated isocitrate dehydrogenase (mIDH) protein. mIDH catalyzes the NADPH-dependent reduction of alpha-ketoglutarate to 2-HG. Cells (LN229 R132H, Mohrenz et al., Apoptosis (2013) 18:1416-1425) were grown in DMEM containing 10% FCS. They were harvested by trypsin and seeded into 96-well plates. Cells were incubated overnight at 37° C. in 5% CO2. The next day test compounds were added to each cell well. The final concentration of DMSO was 0.1% and DMSO controls were included. The plates were then placed in an incubator for 24 hours.
2-HG was measured according to Balss et al. (Acta Neuropathol (2012) 124: 883-891). Briefly, perchloric acid was added to each well and the plates were centrifuged. Aliquots are removed and incubated with hydroxyglutarate dehydrogenase (HGDH), diaphorase, NAD+, and resazurin. The conversion of resazurin to resorufin was detected by fluorescence spectroscopy at Ex 540 nm Em 600 nm. The increase in fluorescence is proportional to 2-HG production. IC50 values are determined by interpolation from plots of relative fluorescence vs inhibitor concentration.

Chain of IDH1 R132H enzyme (O75874 whole entry R132H): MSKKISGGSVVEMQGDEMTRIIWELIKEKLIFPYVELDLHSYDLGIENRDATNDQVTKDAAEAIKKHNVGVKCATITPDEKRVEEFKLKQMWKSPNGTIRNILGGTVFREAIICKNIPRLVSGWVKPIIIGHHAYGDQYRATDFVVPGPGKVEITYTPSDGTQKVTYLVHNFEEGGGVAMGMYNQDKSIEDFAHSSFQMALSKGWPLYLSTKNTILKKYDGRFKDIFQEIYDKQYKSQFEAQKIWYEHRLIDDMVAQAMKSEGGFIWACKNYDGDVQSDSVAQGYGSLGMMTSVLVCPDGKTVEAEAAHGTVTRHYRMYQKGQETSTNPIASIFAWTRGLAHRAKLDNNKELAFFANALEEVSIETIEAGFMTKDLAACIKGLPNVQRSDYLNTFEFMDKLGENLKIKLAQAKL

Structure (SMILES) | IC50 (IDH1 R132H enzyme) [nM] | IC50 [1] [nM] | IC50 ([1]; Homo sapiens, LN-229, 24 h) [nM]
COc1cc2c(cc1C(C)(C)O)nc(Nc1ccc(OC(F)(F)F)cc1)n2[C@H]1C[C@@H](C)CC(C)(C)C1 (single isomer, unassigned; enantiomer b) [Example 2-7-2, 2-(6-methoxy-2-{[4-(trifluoromethoxy)phenyl]amino}-1-[(cis)-3,3,5-trimethylcyclohexyl]-1H-benzimidazol-5-yl)propan-2-ol, enantiomer B] | 20 | 90 | 
C[C@@H]1C[C@H](n2c(Nc3ccc(OC(F)(F)F)cc3)nc3cc(CO)ccc32)CC(C)(C)C1 (single isomer, unassigned; enantiomer a) [Example 2-1-1, (2-{[4-(trifluoromethoxy)phenyl]amino}-1-[(cis)-3,3,5-trimethylcyclohexyl]-1H-benzimidazol-5-yl)methanol, enantiomer A] | 50 |  | 1300
Cc1cc2c(cc1[C@@H](O)C(F)(F)F)nc(Nc1ccc(OC(F)(F)F)cc1)n2C1CC(C)(C)CC(C)(C)C1 (racemic) [Example 2-5, (±) 2,2,2-trifluoro-1-[6-methyl-1-(3,3,5,5-tetramethylcyclohexyl)-2-{[4-(trifluoromethoxy)phenyl]amino}-1H-benzimidazol-5-yl]ethanol] | 30 |  | 800
COc1cc2c(cc1C(C)(C)O)nc(Nc1ccc(OC(F)(F)F)cc1)n2[C@H]1C[C@@H](C)CC(C)(C)C1 (single isomer, unassigned; enantiomer a) [Example 2-7-1, 2-(6-methoxy-2-{[4-(trifluoromethoxy)phenyl]amino}-1-[(cis)-3,3,5-trimethylcyclohexyl]-1H-benzimidazol-5-yl)propan-2-ol, enantiomer A] | 50 | 480 | 
COc1cc2c(cc1CO)nc(Nc1ccc(OC(F)(F)F)cc1)n2[C@H]1C[C@@H](C)CC(C)(C)C1 (single isomer, unassigned; enantiomer a) [Example 2-6-1, (6-methoxy-2-{[4-(trifluoromethoxy)phenyl]amino}-1-[(cis)-3,3,5-trimethylcyclohexyl]-1H-benzimidazol-5-yl)methanol, enantiomer A] | 20 | 140 | 
C[C@@H]1C[C@H](n2c(Nc3ccc(OC(F)(F)F)cc3)nc3cc(C(C)(C)O)ccc32)CC(C)(C)C1 (single isomer, unassigned; enantiomer b) [Example 2-2-2, 2-(2-{[4-(trifluoromethoxy)phenyl]amino}-1-[(cis)-3,3,5-trimethylcyclohexyl]-1H-benzimidazol-5-yl)propan-2-ol, enantiomer B] | 40 |  | 500
Cc1cc2c(cc1C(C)(C)O)nc(Nc1ccc(OC(F)(F)F)cc1)n2C1CC(C)(C)CC(C)(C)C1 [Example 2-4, 2-[6-methyl-1-(3,3,5,5-tetramethylcyclohexyl)-2-{[4-(trifluoromethoxy)phenyl]amino}-1H-benzimidazol-5-yl]propan-2-ol] | 30 |  | 550
COc1cc2c(cc1CO)nc(Nc1ccc(OC(F)(F)F)cc1)n2[C@H]1C[C@@H](C)CC(C)(C)C1 (single isomer, unassigned; enantiomer b) [Example 2-6-2, (6-methoxy-2-{[4-(trifluoromethoxy)phenyl]amino}-1-[(cis)-3,3,5-trimethylcyclohexyl]-1H-benzimidazol-5-yl)methanol, enantiomer B] | 110 | 630 | 
